The results in this text go back to ChEMBL document CHEMBL4613209, “Quinolone hybrids and their anti-cancer activities: An overview” (Eur J Med Chem, 2019).

≈ marks a conversion by molar mass, not a printed value.

In data set [1] the test system is A549. Nature of the data set: Antiproliferative activity against human A549 cells by CCK8 assay. The class given is functional, cell-based. A general note: Tetrazolium dyes change colour on reduction, which living cells bring about.
Data set [2] deals with HepG2. Briefly: Antiproliferative activity against human HepG2 cells by CCK8 assay. The class given is functional, cell-based.
The test system of data set [3] is MCF7. Briefly: Antiproliferative activity against human MCF7 cells by CCK8 assay. The class given is functional, cell-based.
Another data set concerns PC-3. Nature of the data set: Antiproliferative activity against human PC3 cells by CCK8 assay. Format: functional, cell-based.
The test system of data set [4] is HeLa. Nature of the data set: Antiproliferative activity against human HeLa cells by CCK8 assay. The class given is functional, cell-based.
For a further data set, the system named is MCF-10A. Briefly: Antiproliferative activity against human MCF10A cells by CCK8 assay. The class given is cell-based.
The next data set has as its target Histone deacetylase. Nature of the data set: Inhibition of HDAC (unknown origin). Format: protein assay, Homo sapiens.
The target of the next data set is Tubulin. Briefly: Inhibition of tubulin polymerization (unknown origin). Format: protein-complex assay, Homo sapiens.
In the next data set the test system is SW1990. Nature of the data set: Cytotoxicity against human SW1990 cells assessed as reduction in cell viability by MTT assay. The class given is functional, cell-based.
A further data set relates to SMMC-7721. Nature of the data set: Cytotoxicity against human SMMC7721 cells assessed as reduction in cell viability by MTT assay. The class given is functional, cell-based.
The subject of another data set is HUVEC. Nature of the data set: Cytotoxicity against human HUVEC cells assessed as reduction in cell viability by MTT assay. Format: cell-based.
In the next data set the test system is HT-1080. Briefly: Cytotoxicity against human HT1080 cells assessed as reduction in cell viability. The class given is functional, cell-based.
For data set [5], the system named is A549. Nature of the data set: Cytotoxicity against human A549 cells assessed as reduction in cell viability. The class given is functional, cell-based.
Data set [6] deals with HT-29. Briefly: Cytotoxicity against human HT-29 cells assessed as reduction in cell viability. Format: functional, cell-based.
For data set [7], the system named is P388. Briefly: Cytotoxicity against mouse P388 cells assessed as reduction in cell viability. Format: functional, cell-based.
For data set [8], the system named is P388. Nature of the data set: Cytotoxicity against doxorubicin resistant mouse P388 cells assessed as reduction in cell viability. The class given is functional, cell-based.
Data set [9] has as its system B16-F10. Briefly: Cytotoxicity against mouse B16F10 cells assessed as reduction in cell viability. The class given is functional, cell-based.
Data set [10] in a line: Toxicity in mouse xenografted with human CX-1 cells. To be noted: in vivo.
Data set [11] is described as follows: Toxicity in mouse xenografted with human MB-9812 cells. For orientation: In xenograft studies the graft and the host belong to different species.
In data set [12] the test system is A549. Nature of the data set: Anticancer activity against human A549 cells. The class given is functional, cell-based.
Data set [13] relates to HT-29. Nature of the data set: Anticancer activity against human HT-29 cells. Format: functional, cell-based.
In another data set the test system is HCT-8. Nature of the data set: Anticancer activity against human HCT8 cells. The class given is functional, cell-based.
In data set [14] the test system is MCF7. Briefly: Anticancer activity against human MCF7 cells. Format: functional, cell-based.
The subject of data set [15] is B16-F10. Briefly: Anticancer activity against mouse B16F10 cells. Format: functional, cell-based.
The subject of data set [16] is Lewis lung carcinoma cell line. Briefly: Anticancer activity against mouse LLC cells. Format: functional, cell-based.
The subject of data set [17] is P388. Briefly: Anticancer activity against mouse P388 cells. The class given is functional, cell-based.
For data set [18], the system named is P388. Nature of the data set: Anticancer activity against doxorubicin resistant mouse P388 cells. Format: functional, cell-based.
Another data set concerns K562. Nature of the data set: Anticancer activity against human K562 cells. Format: functional, cell-based.
For data set [19], the system named is PANC-1. Nature of the data set: Antiproliferative activity against human PANC1 cells after 48 hrs by MTT assay. To be noted: PANC-1, 48 h. Format: functional, cell-based.
Data set [20] has as its system HCT-116. Briefly: Antiproliferative activity against human HCT116 cells after 48 hrs by MTT assay. To be noted: HCT-116, 48 h. The class given is functional, cell-based.
The test system of data set [21] is HeLa. Briefly: Antiproliferative activity against human HeLa cells after 48 hrs by MTT assay. The class given is functional, cell-based.
For data set [22], the system named is A549. Nature of the data set: Antiproliferative activity against human A549 cells after 48 hrs by MTT assay. The class given is functional, cell-based. The following applies: A549, 48 h.
The subject of a further data set is SiHa. Nature of the data set: Growth inhibition of human SiHa cells after 48 hrs by SRB assay. Format: functional. Background: In SRB staining, fixed cells bind dye roughly in proportion to their protein.
For a further data set, the system named is MDA-MB-231. Briefly: Growth inhibition of human MDA-MB-231 cells after 48 hrs by SRB assay. The class given is functional. The following applies: MDA-MB-231, 48 h.
Data set [23] has as its system PANC-1. Briefly: Growth inhibition of human PANC1 cells after 48 hrs by SRB assay. The class given is functional. To be noted: PANC-1, 48 h.
Data set [24] has as its system MCF7. Briefly: Cytotoxicity against human MCF7 cells assessed as reduction in cell viability by SRB assay. Format: functional, cell-based.
Data set [25] relates to HCT-116. Briefly: Cytotoxicity against human HCT116 cells assessed as reduction in cell viability by SRB assay. Format: functional, cell-based.
For data set [26], the system named is HepG2. Nature of the data set: Anticancer activity against human HepG2 cells by MTT assay. The class given is functional, cell-based.
The test system of data set [27] is HT-29. Briefly: Anticancer activity against human HT-29 cells by MTT assay. The class given is functional, cell-based.
The next data set has as its system HL-60. Nature of the data set: Anticancer activity against human HL60 cells by MTT assay. The class given is functional, cell-based.
Data set [28] relates to A549. Briefly: Anticancer activity against human A549 cells by MTT assay. The class given is functional, cell-based.
Data set [29] relates to HeLa. Briefly: Anticancer activity against human HeLa cells by MTT assay. Format: functional, cell-based.

In the case of `C[C@H]1COc2c(N3CCN(C)CC3)c(F)cc3c(=O)c(C(=O)OCc4cn(CCCCCCCC(=O)NO)nn4)cn1c23`, the 50% inhibitory concentration (IC50) (usually the concentration at which inhibition is half-maximal) with A549 [1] was 300 to 12800 nM; in the data set on HepG2 [2] it was 300 to 12800 nM; with MCF7 [3], 300 to 12800 nM; with PC-3 it was 300 to 12800 nM; in the data set with HeLa [4] it was 300 to 12800 nM; with MCF-10A, > 100000 nM. For the same compound, the IC50 fell in the range of 21 to 850 nM against Histone deacetylase and 1790 to 6360 nM against Tubulin.
`COc1ccc2cc3[n+](cc2c1OC)CCc1cc2c(cc1-3)OCO2` [BERBERINE]: the IC50 in the data set with SW1990, in the data set on SMMC-7721 and in the data set on HUVEC was 18300 to 65600 nM throughout.
Turning to `CC[C@H](CC[C@@H](C)[C@H]1CC[C@H]2[C@@H]3CC=C4C[C@@H](O)CC[C@]4(C)[C@H]3CC[C@]12C)C(C)C` [BETA-SITOSTEROL], the IC50 with HT-1080 was in the range of 2500 to 15700 nM.
As for `CCC[C@H](N)C(=O)NC1CCN(C2C(F)=Cc3c4n(cc(C(=O)O)c3=O)-c3ccccc3OC42)C1` (stereo partly specified), the IC50 in the data set with A549 [5] lay in the range of 0.01 to 1 µg/mL (≈ 0.0207 to 2.07 µM); in the data set with HT-29 [6], 0.01 to 1 µg/mL (≈ 0.0207 to 2.07 µM); in the data set on P388 [7], 0.01 to 1 µg/mL (≈ 0.0207 to 2.07 µM); with P388 [8], 0.01 to 1 µg/mL (≈ 0.0207 to 2.07 µM); in the data set with B16-F10 [9], 0.01 to 1 µg/mL (≈ 0.0207 to 2.07 µM); in the data set with A549 [12], 30 to 490 nM. In addition, the IC50 (with HT-29 [13]; with HCT-8; with MCF7 [14]; in the data set on B16-F10 [15]; in [16]; in the data set on P388 [17]) was 30 to 490 nM in each case. The compound also returned an IC50 in the data set with P388 [18] of 30 to 490 nM. For the same compound, the LD50 in [10] and in data set [11] was 59.6 mg/kg in each case.
`O=C(O)c1cn([C@@H]2O[C@H](CO)[C@@H](O)[C@H]2O)c2ccc(Oc3ccccc3)cc2c1=O` returned an IC50 with K562 of 64100 to 198000 nM.
On to `CCCN(CCC)Cc1cn(-c2cc3c(cc2F)c(=O)c(C(=O)NO)cn3C2CC2)nn1`, for which the IC50 with PANC-1 [19], in the data set on HCT-116 [20], in the data set with HeLa [21] and in the data set on A549 [22] was > 10000 nM each time.
Consider `O=C(NO)c1cn(C2CC2)c2cc(-n3cc(CN4CCCCC4)nn3)c(F)cc2c1=O`, for which the IC50 in the data set on PANC-1 [19], with HCT-116 [20], in the data set with HeLa [21] and in the data set on A549 [22] was > 10000 nM throughout.
As for `C[C@H]1COc2c(N3CCN(C)CC3)c(F)cc3c(=O)c(C(=O)OCc4cn(CCCCCC(=O)NO)nn4)cn1c23`, the IC50 in the data set with A549 [1] was 300 to 12800 nM; with HepG2 [2], 300 to 12800 nM; in the data set on MCF7 [3], 300 to 12800 nM; with PC-3, 300 to 12800 nM; in the data set on HeLa [4] it was 300 to 12800 nM; with MCF-10A, > 100000 nM. In addition, the IC50 on Histone deacetylase lay within 21 to 850 nM; against Tubulin it was 1790 to 6360 nM.
In the case of `CCn1cc(C(=O)O)c(=O)c2cnc(N3CCN(C(=O)CCSc4nnnn4-c4cc(OC)c(OC)c(OC)c4)CC3)nc21`, the GI50 in the data set with SiHa, with MDA-MB-231 and with PANC-1 [23] was 60 to 2000 nM throughout.
In the case of `CCn1cc(C(=O)O)c(=O)c2cnc(N3CCN(C(=O)CCSc4nnnn4-c4ccc(Br)cc4)CC3)nc21`, the GI50 (as a rule, the concentration at which growth is held to half of that of the control) with SiHa amounted to 80 nM; with MDA-MB-231 it was 220 nM; in the data set with PANC-1 [23], 70 nM.
For `NC(=O)c1cn([C@@H]2O[C@H](CO)[C@@H](O)[C@H]2O)c2ccc(Oc3ccccc3)cc2c1=O`, the IC50 in the data set on K562 came out at 76800 nM.
On to `C[C@H]1COc2c(N3CCN(C)CC3)c(F)cc3c(=O)c(C(=O)NCc4cn(CCCCCC(=O)NO)nn4)cn1c23`, for which the IC50 with A549 [1] was 300 to 12800 nM; in the data set on HepG2 [2], 300 to 12800 nM; with MCF7 [3] it was 300 to 12800 nM; in the data set on PC-3, 300 to 12800 nM; with HeLa [4] it was 300 to 12800 nM; in the data set with MCF-10A, > 100000 nM. In addition, the values for the 50% inhibitory concentration (IC50) on Histone deacetylase and against Tubulin were 21 to 850 nM and 1790 to 6360 nM, respectively.
As to `N#Cc1c(N)c2cc(-c3nc4ccccc4o3)ccc2[nH]c1=O`, the IC50 in the data set with MCF7 [24] amounted to 26.7 nM; in the data set on HCT-116 [25] it was 35.7 nM.
With `C[C@H]1COc2c(N3CCN(C)CC3)c(F)cc3c(=O)c(C(=O)NCc4cn(CCCCCCCC(=O)NO)nn4)cn1c23`, the concentration for half-maximal inhibition (IC50) was 300 to 12800 nM with A549 [1]; 300 to 12800 nM with HepG2 [2]; 300 to 12800 nM with MCF7 [3]; 300 to 12800 nM in the data set with PC-3; 300 to 12800 nM in the data set on HeLa [4]; > 100000 nM in the data set on MCF-10A. For the same compound, the IC50 against Histone deacetylase was 21 to 850 nM; on Tubulin it was 1790 to 6360 nM.
As to `O=C(O)c1cn(C2CC2)c2cc(N3CCN(C(=O)CCSc4nnnn4Cc4ccccc4)CC3)c(F)cc2c1=O`, the concentration for 50% growth inhibition (GI50) in the data set with SiHa and in the data set with MDA-MB-231 was ≤ 100 nM in each case.
In the case of `CCOC(=O)c1cn(Cc2cn(-c3ccc(F)cc3)nn2)c2ccc(Cl)cc2c1=O`, the IC50 with HepG2 [26], with HT-29 [27], in the data set on HL-60, in the data set on A549 [28] and in the data set on HeLa [29] was 13600 to 66000 nM each time.
